Results reported in patent publication US6479435B1, “Diaryl ethers and processes for their preparation and herbicidal and desiccant compositions containing them” (ISK Americas Incorporated, priority 1997, dated 2002).

Columns and labels:
Assay type in all cases: in vivo
[1] = tested on: soybean (Glycine max L., var. Pella 86, SOY); assay: Post-emerge greenhouse test, crop damage rating; conditions: 14 days after application
Outline: (§1)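 Compounds in acetone with 0.25% v/v non-ionic surfactant were track-sprayed at 187 l/ha over plants at the 2-3 leaf stage, at 63 to 1000 g ai/ha. Pots were bottom-watered. Injury was scored visually 14 days later on a 0-100 scale, where 0 is no damage and 100 is complete plant death.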

[2] = tested on: common ragweed (Ambrosia artemisiifolia L., AMBEL); assay: Post-emerge greenhouse herbicide test, phytotoxicity rating; conditions: 14 days after application
Outline: as §1

[3] = tested on: ivyleaf morningglory (Ipomoea hederacea, IPOHE); assay: Pre-emerge greenhouse herbicide test, phytotoxicity rating; conditions: 14 days after application, rating scale 0-100
Outline: (§2)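 Seeds sown in sandy loam mix one day before track-sprayer application of compounds in acetone at 125–1000 g ai/ha (187 l/ha), then surface-watered to incorporate and bottom-watered. Visual rating 14 days after application on a 0–100 scale (0 = no damage, 100 = all plants dead).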

[4] = tested on: sicklepod (Cassia obtusifolia, CASOB); assay: as above; conditions: 14 days after application, rating scale 0-100
Outline: as §2

[5] = tested on: common ragweed (Ambrosia artemisiifolia L., AMBEL); assay: as above; conditions: 14 days after application, rating scale 0-100
Outline: as §2

[6] = tested on: lambsquarters (Chenopodium album, CHEAL); assay: as above; conditions: 14 days after application, rating scale 0-100
Outline: as §2

[7] = tested on: redroot pigweed (Amaranthus retroflexus, AMARE); assay: as above; conditions: 14 days after application, rating scale 0-100
Outline: as §2

[8] = tested on: large crabgrass (Digitaria sanguinalis, DIGSA); assay: as above; conditions: 14 days after application, rating scale 0-100
Outline: as §2

[9] = tested on: velvetleaf (Abutilon theophrasti, ABUTH); assay: as above; conditions: 14 days after application, rating scale 0-100
Outline: as §2

[10] = tested on: green foxtail (Setaria viridis, SETVI); assay: as above; conditions: 14 days after application, rating scale 0-100
Outline: as §2

[11] = tested on: barnyardgrass (Echinochloa crusgalli, ECHCG); assay: as above; conditions: 14 days after application, rating scale 0-100
Outline: as §2

[12] = tested on: Johnsongrass (Sorghum halepense, SORHA); assay: as above; conditions: 14 days after application, rating scale 0-100
Outline: as §2

[13] = tested on: field corn (Zea mays L., var. Dekalb 535, CORN); assay: Pre-emerge greenhouse test, crop damage rating; conditions: 14 days after application, rating scale 0-100
Outline: as §2

[14] = tested on: upland rice (Oryza sp., var.Tebonnet, RICE); assay: Pre-emerge greenhouse test, crop damage rating; conditions: 14 days after application, rating scale 0-100
Outline: as §2

[15] = tested on: field corn (Zea mays L., var. Dekalb 535, CORN); assay: Post-emerge greenhouse test, crop damage rating; conditions: 14 days after application
Outline: as §1

[16] = tested on: upland rice (Oryza sp., var.Tebonnet, RICE); assay: Post-emerge greenhouse test, crop damage rating; conditions: 14 days after application
Outline: as §1

[17] = tested on: ivyleaf morningglory (Ipomoea hederacea, IPOHE); assay: Post-emerge greenhouse herbicide test, phytotoxicity rating; conditions: 14 days after application
Outline: as §1

[18] = tested on: sicklepod (Cassia obtusifolia, CASOB); assay: as above; conditions: 14 days after application
Outline: as §1

[19] = tested on: lambsquarters (Chenopodium album, CHEAL); assay: as above; conditions: 14 days after application
Outline: as §1

[20] = tested on: redroot pigweed (Amaranthus retroflexus, AMARE); assay: as above; conditions: 14 days after application
Outline: as §1

[21] = tested on: large crabgrass (Digitaria sanguinalis, DIGSA); assay: as above; conditions: 14 days after application
Outline: as §1

[22] = tested on: velvetleaf (Abutilon theophrasti, ABUTH); assay: as above; conditions: 14 days after application
Outline: as §1

[23] = tested on: green foxtail (Setaria viridis, SETVI); assay: as above; conditions: 14 days after application
Outline: as §1

[24] = tested on: barnyardgrass (Echinochloa crusgalli, ECHCG); assay: as above; conditions: 14 days after application
Outline: as §1

[25] = tested on: Johnsongrass (Sorghum halepense, SORHA); assay: as above; conditions: 14 days after application
Outline: as §1

[26] = tested on: soybean (Glycine max L., var. Pella 86, SOY); assay: Pre-emerge greenhouse test, crop damage rating; conditions: 14 days after application, rating scale 0-100
Outline: as §2

With O=C1C2CCCCN2C(=O)N1c1cc(Oc2ncccc2C(F)(F)F)c(Cl)cc1F (stereo not drawn) [Compound 8-4] the “SOY crop damage rating (0-100)” value ([1]; 63 g al/ha) was 20, the “SOY crop damage rating (0-100)” value ([1]; 500 g al/ha) was 30 and the “AMBEL phytotoxicity rating (0-100)” value ([2]; 63 g al/ha) was 0. For the same compound, the “AMBEL phytotoxicity rating (0-100)” value ([2]; 500 g al/ha) was 0, the “phytotoxicity rating IPOHE” value ([3]; 125 g ai/ha) was 0 and the “phytotoxicity rating IPOHE” value ([3]; 500 g ai/ha) was 0. For the same compound, the “phytotoxicity rating CASOB” value ([4]; 125 g ai/ha) was 30, the “phytotoxicity rating CASOB” value ([4]; 500 g ai/ha) was 90 and the “phytotoxicity rating AMBEL” value ([5]; 125 g ai/ha) was 20. For the same compound, the “phytotoxicity rating AMBEL” value ([5]; 500 g ai/ha) was 0, the “phytotoxicity rating CHEAL” value ([6]; 125 g ai/ha) was 70 and the “phytotoxicity rating CHEAL” value ([6]; 500 g ai/ha) was 100. For the same compound, the “phytotoxicity rating AMARE” value ([7]; 125 g ai/ha) was 100, the “phytotoxicity rating AMARE” value ([7]; 500 g ai/ha) was 100 and the “phytotoxicity rating DIGSA” value ([8]; 125 g ai/ha) was 30. The “phytotoxicity rating DIGSA” value ([8]; 500 g ai/ha) was 90, the “phytotoxicity rating ABUTH” value ([9]; 125 g ai/ha) was 100 and the “phytotoxicity rating ABUTH” value ([9]; 500 g ai/ha) was 100. The “phytotoxicity rating SETVI” value ([10]; 125 g ai/ha) was 50, the “phytotoxicity rating SETVI” value ([10]; 500 g ai/ha) was 100 and the “phytotoxicity rating ECHCG” value ([11]; 125 g ai/ha) was 10. For the same compound, the “phytotoxicity rating ECHCG” value ([11]; 500 g ai/ha) was 30, the “phytotoxicity rating SORHA” value ([12]; 500 g ai/ha) was 70 and the “crop damage rating CORN” value ([13]; 125 g ai/ha) was 0. For the same compound, the “crop damage rating CORN” value ([13]; 500 g ai/ha) was 0, the “crop damage rating RICE” value ([14]; 125 g ai/ha) was 0 and the “crop damage rating RICE” value ([14]; 500 g ai/ha) was 30. For the same compound, the “CORN crop damage rating (0-100)” value ([15]; 63 g al/ha) was 5, the “CORN crop damage rating (0-100)” value ([15]; 500 g al/ha) was 10 and the “RICE crop damage rating (0-100)” value ([16]; 63 g al/ha) was 0. The “RICE crop damage rating (0-100)” value ([16]; 500 g al/ha) was 0, the “IPOHE phytotoxicity rating (0-100)” value ([17]; 63 g al/ha) was 50 and the “IPOHE phytotoxicity rating (0-100)” value ([17]; 500 g al/ha) was 60. The “CASOB phytotoxicity rating (0-100)” value ([18]; 63 g al/ha) was 20, the “CASOB phytotoxicity rating (0-100)” value ([18]; 500 g al/ha) was 40 and the “CHEAL phytotoxicity rating (0-100)” value ([19]; 63 g al/ha) was 70. The “CHEAL phytotoxicity rating (0-100)” value ([19]; 500 g al/ha) was 75, the “AMARE phytotoxicity rating (0-100)” value ([20]; 63 g al/ha) was 60 and the “AMARE phytotoxicity rating (0-100)” value ([20]; 500 g al/ha) was 100. The “DIGSA phytotoxicity rating (0-100)” value ([21]; 63 g al/ha) was 0, the “DIGSA phytotoxicity rating (0-100)” value ([21]; 500 g al/ha) was 0 and the “ABUTH phytotoxicity rating (0-100)” value ([22]; 63 g al/ha) was 70. For the same compound, the “ABUTH phytotoxicity rating (0-100)” value ([22]; 500 g al/ha) was 85, the “SETVI phytotoxicity rating (0-100)” value ([23]; 63 g al/ha) was 10 and the “SETVI phytotoxicity rating (0-100)” value ([23]; 500 g al/ha) was 10. For the same compound, the “ECHCG phytotoxicity rating (0-100)” value ([24]; 63 g al/ha) was 0, the “ECHCG phytotoxicity rating (0-100)” value ([24]; 500 g al/ha) was 0 and the “SORHA phytotoxicity rating (0-100)” value ([25]; 500 g al/ha) was 0. The “crop damage rating SOY” value ([26]; 125 g ai/ha) was 0 and the “crop damage rating SOY” value ([26]; 500 g ai/ha) was 0.

For O=c1n(-c2cc(Oc3ccccc3)c(Cl)cc2F)c(=S)n2n1CCCC2 [Compound 8-5], the “SOY crop damage rating (0-100)” value ([1]; 63 g al/ha) was 50, the “SOY crop damage rating (0-100)” value ([1]; 500 g al/ha) was 85 and the “AMBEL phytotoxicity rating (0-100)” value ([2]; 63 g al/ha) was 55. For the same compound, the “AMBEL phytotoxicity rating (0-100)” value ([2]; 500 g al/ha) was 100, the “phytotoxicity rating IPOHE” value ([3]; 125 g ai/ha) was 0 and the “phytotoxicity rating IPOHE” value ([3]; 500 g ai/ha) was 70. For the same compound, the “phytotoxicity rating CASOB” value ([4]; 125 g ai/ha) was 30, the “phytotoxicity rating CASOB” value ([4]; 500 g ai/ha) was 95 and the “phytotoxicity rating AMBEL” value ([5]; 125 g ai/ha) was 40. For the same compound, the “phytotoxicity rating AMBEL” value ([5]; 500 g ai/ha) was 100, the “phytotoxicity rating CHEAL” value ([6]; 125 g ai/ha) was 100 and the “phytotoxicity rating CHEAL” value ([6]; 500 g ai/ha) was 100. The “phytotoxicity rating AMARE” value ([7]; 125 g ai/ha) was 95, the “phytotoxicity rating AMARE” value ([7]; 500 g ai/ha) was 100 and the “phytotoxicity rating DIGSA” value ([8]; 125 g ai/ha) was 40. The “phytotoxicity rating DIGSA” value ([8]; 500 g ai/ha) was 85, the “phytotoxicity rating ABUTH” value ([9]; 125 g ai/ha) was 100 and the “phytotoxicity rating ABUTH” value ([9]; 500 g ai/ha) was 100. For the same compound, the “phytotoxicity rating SETVI” value ([10]; 125 g ai/ha) was 80, the “phytotoxicity rating SETVI” value ([10]; 500 g ai/ha) was 100 and the “phytotoxicity rating ECHCG” value ([11]; 125 g ai/ha) was 0. The “phytotoxicity rating ECHCG” value ([11]; 500 g ai/ha) was 60, the “phytotoxicity rating SORHA” value ([12]; 125 g ai/ha) was 20 and the “phytotoxicity rating SORHA” value ([12]; 500 g ai/ha) was 30. For the same compound, the “crop damage rating CORN” value ([13]; 125 g ai/ha) was 0, the “crop damage rating CORN” value ([13]; 500 g ai/ha) was 5 and the “crop damage rating RICE” value ([14]; 125 g ai/ha) was 0. For the same compound, the “crop damage rating RICE” value ([14]; 500 g ai/ha) was 25, the “CORN crop damage rating (0-100)” value ([15]; 63 g al/ha) was 5 and the “CORN crop damage rating (0-100)” value ([15]; 500 g al/ha) was 20. For the same compound, the “RICE crop damage rating (0-100)” value ([16]; 63 g al/ha) was 0, the “RICE crop damage rating (0-100)” value ([16]; 500 g al/ha) was 10 and the “IPOHE phytotoxicity rating (0-100)” value ([17]; 63 g al/ha) was 90. The “IPOHE phytotoxicity rating (0-100)” value ([17]; 500 g al/ha) was 100, the “CASOB phytotoxicity rating (0-100)” value ([18]; 63 g al/ha) was 55 and the “CASOB phytotoxicity rating (0-100)” value ([18]; 500 g al/ha) was 100. For the same compound, the “CHEAL phytotoxicity rating (0-100)” value ([19]; 63 g al/ha) was 100, the “CHEAL phytotoxicity rating (0-100)” value ([19]; 500 g al/ha) was 100 and the “AMARE phytotoxicity rating (0-100)” value ([20]; 63 g al/ha) was 100. For the same compound, the “AMARE phytotoxicity rating (0-100)” value ([20]; 500 g al/ha) was 100, the “DIGSA phytotoxicity rating (0-100)” value ([21]; 63 g al/ha) was 0 and the “DIGSA phytotoxicity rating (0-100)” value ([21]; 500 g al/ha) was 70. For the same compound, the “ABUTH phytotoxicity rating (0-100)” value ([22]; 63 g al/ha) was 100, the “ABUTH phytotoxicity rating (0-100)” value ([22]; 500 g al/ha) was 100 and the “SETVI phytotoxicity rating (0-100)” value ([23]; 63 g al/ha) was 30. The “SETVI phytotoxicity rating (0-100)” value ([23]; 500 g al/ha) was 65, the “ECHCG phytotoxicity rating (0-100)” value ([24]; 63 g al/ha) was 20 and the “ECHCG phytotoxicity rating (0-100)” value ([24]; 500 g al/ha) was 55. The “SORHA phytotoxicity rating (0-100)” value ([25]; 63 g al/ha) was 10, the “SORHA phytotoxicity rating (0-100)” value ([25]; 500 g al/ha) was 60 and the “crop damage rating SOY” value ([26]; 125 g ai/ha) was 0. For the same compound, the “crop damage rating SOY” value ([26]; 500 g ai/ha) was 40.
